# Measured values as given in patent publication US20060062729A1, “Enhanced ligand binding to neurotensin receptors” (priority 2004, published 2006).
# “And” between values parts separate entries of the source, which are not always exact repeats. Equal entries are not always repeated. No end group written: not given here.
# Key:
# PC3 cells = test: ATP-induced IP formation in PC3 cells; format: cell-based; conditions: maximal dose of ATP (10 μM)
# NTR1 [1] = target: T1, NTR1 (Homo sapiens, UniProt P30989); test: ^125I-NT binding to PC3 cells
# T1 sequence (P30989 whole entry): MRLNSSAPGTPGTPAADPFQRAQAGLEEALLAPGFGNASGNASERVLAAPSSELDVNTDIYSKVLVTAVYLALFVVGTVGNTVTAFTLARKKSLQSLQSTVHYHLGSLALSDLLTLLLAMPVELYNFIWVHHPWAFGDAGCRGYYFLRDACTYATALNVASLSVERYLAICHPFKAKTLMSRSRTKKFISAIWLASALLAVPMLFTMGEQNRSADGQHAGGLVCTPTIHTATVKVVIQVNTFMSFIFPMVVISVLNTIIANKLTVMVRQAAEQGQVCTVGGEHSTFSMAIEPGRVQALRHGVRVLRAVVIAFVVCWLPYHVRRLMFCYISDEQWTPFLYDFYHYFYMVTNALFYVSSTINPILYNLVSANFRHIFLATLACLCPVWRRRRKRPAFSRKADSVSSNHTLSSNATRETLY
# NTR1 [2] = target: T1, NTR1; test: UV crosslinking of ^125I-(4-azido-Phe^6)-NT into immunoprecipitated NTR1 of PC3 cells; format: binding; parameters: Ab-NTR1 detected two major bands in extracts of PC3 cells, the parent protein of 50 kDa; endogenous in cells; host or cells: PC3 cells (ATCC); conditions: 50 μM agent
# NTR1 [3] = target: T1, NTR1; test: ^125I-NT binding to isolated PC3 cell membranes; parameters: Ab-NTR1 detected two major bands in extracts of PC3 cells, the parent protein of 50 kDa; endogenous in cells; host or cells: PC3 cells (ATCC)
# EGF receptor = target: T2, EGF receptor (Homo sapiens, UniProt P00533); test: ^125I-EGF binding to PC3 cells; conditions: PC3 cells (text to Table 9)
# T2 construct: endogenous in cells; host or cells: PC3 cells (ATCC)
# T2 sequence (P00533 25-1210): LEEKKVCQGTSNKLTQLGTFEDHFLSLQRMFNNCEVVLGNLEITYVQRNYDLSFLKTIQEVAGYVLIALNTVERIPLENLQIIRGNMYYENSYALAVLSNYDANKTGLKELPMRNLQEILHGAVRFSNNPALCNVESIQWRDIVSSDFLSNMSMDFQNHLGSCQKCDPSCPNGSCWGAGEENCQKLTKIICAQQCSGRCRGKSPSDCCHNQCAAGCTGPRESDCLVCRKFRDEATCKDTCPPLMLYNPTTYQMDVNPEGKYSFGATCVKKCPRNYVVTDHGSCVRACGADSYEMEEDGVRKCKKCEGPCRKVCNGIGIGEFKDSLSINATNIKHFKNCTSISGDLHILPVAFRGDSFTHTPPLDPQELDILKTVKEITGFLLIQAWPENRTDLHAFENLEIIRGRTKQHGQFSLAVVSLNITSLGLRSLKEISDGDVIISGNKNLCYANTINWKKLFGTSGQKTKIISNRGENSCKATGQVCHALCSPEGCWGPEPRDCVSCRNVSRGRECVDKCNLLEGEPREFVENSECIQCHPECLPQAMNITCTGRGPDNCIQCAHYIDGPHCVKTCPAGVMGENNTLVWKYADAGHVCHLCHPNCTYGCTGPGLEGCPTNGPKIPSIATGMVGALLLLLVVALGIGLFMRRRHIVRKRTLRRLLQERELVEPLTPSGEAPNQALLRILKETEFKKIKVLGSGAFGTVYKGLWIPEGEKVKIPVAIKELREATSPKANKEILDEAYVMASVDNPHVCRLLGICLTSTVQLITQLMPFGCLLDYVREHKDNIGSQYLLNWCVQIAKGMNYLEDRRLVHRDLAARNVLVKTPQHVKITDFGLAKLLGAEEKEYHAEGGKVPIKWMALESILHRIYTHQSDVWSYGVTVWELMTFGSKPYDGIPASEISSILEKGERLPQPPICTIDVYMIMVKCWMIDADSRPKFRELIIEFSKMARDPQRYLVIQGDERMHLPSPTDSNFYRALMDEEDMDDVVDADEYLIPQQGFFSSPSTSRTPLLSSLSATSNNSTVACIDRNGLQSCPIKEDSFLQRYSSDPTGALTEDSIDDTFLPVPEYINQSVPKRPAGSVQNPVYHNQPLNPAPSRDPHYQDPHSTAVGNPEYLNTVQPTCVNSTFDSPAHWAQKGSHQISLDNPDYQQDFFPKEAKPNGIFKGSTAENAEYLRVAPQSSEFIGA
# 5-LOX = target: T3, 5-LOX (Homo sapiens, UniProt P09917); conditions: range of reported values, various blood cell systems; cited from earlier work
# T3 sequence (P09917 1-674): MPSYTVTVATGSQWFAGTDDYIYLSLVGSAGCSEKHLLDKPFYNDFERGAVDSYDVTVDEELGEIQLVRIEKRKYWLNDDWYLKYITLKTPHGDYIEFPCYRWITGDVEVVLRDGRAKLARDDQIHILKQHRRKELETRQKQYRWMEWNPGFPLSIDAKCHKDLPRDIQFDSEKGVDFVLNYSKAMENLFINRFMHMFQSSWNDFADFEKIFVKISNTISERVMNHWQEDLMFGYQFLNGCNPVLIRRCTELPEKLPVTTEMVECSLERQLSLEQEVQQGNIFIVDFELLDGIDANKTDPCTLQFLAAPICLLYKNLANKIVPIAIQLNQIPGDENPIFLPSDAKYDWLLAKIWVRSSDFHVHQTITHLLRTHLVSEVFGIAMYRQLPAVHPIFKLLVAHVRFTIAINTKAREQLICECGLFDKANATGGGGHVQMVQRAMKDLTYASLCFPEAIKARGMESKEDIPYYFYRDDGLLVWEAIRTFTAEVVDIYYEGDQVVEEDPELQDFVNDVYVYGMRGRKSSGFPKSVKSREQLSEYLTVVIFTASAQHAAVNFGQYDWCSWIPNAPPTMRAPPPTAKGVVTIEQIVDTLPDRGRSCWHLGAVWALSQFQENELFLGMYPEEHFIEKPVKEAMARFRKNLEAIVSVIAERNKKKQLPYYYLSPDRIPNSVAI
# bombesin receptor = target: T4, bombesin receptor (Homo sapiens, UniProt P30550); test: ^125I-[Nle^14]-bombesin binding to PC3 cells; conditions: for Specific Binding (% control) of ^125I-[Nle14]-bombesin: 37° C.
# T4 construct: endogenous in cells; host or cells: PC3 cells (ATCC)
# T4 sequence (P30550 whole entry): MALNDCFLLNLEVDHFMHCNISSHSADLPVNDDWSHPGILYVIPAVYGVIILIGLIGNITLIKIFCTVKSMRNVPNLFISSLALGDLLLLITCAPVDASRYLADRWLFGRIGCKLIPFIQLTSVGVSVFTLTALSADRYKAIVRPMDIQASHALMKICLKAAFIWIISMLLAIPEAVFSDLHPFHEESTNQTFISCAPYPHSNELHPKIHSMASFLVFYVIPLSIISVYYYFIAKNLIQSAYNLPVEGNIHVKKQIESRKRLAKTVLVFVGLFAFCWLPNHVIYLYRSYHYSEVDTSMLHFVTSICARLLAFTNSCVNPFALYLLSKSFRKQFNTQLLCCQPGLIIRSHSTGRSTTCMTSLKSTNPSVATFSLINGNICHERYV
# NTR1 [4] = target: T1, NTR1; format: cell-based; parameters: Ab-NTR1 detected two major bands in extracts of PC3 cells, the parent protein of 50 kDa; endogenous in cells; host or cells: PC3 cells (ATCC); conditions: 50 μM agent, 37° C., ^125I-NT prebound at 4° C.
# NTR1 [5] = target: T1, NTR1; test: NT-induced IP formation in PC3 cells; format: cell-based; parameters: Ab-NTR1 detected two major bands in extracts of PC3 cells, the parent protein of 50 kDa; endogenous in cells; host or cells: PC3 cells (ATCC); conditions: maximal % decrease in NT-induced IP formation
# [6] = target: neurotensin-1 receptor (NTR1) (Homo sapiens, UniProt P30989); conditions: read-out: binding affinity; cited from earlier work
# Sequence of neurotensin-1 receptor (NTR1) (P30989 whole entry, species assumed): as the sequence (P30989 whole entry) above
# [7] = target: neurotensin-2 receptor (NTR2) (Homo sapiens, UniProt O95665); conditions: read-out: binding affinity; cited from earlier work
# Sequence of neurotensin-2 receptor (NTR2) (O95665 whole entry, species assumed): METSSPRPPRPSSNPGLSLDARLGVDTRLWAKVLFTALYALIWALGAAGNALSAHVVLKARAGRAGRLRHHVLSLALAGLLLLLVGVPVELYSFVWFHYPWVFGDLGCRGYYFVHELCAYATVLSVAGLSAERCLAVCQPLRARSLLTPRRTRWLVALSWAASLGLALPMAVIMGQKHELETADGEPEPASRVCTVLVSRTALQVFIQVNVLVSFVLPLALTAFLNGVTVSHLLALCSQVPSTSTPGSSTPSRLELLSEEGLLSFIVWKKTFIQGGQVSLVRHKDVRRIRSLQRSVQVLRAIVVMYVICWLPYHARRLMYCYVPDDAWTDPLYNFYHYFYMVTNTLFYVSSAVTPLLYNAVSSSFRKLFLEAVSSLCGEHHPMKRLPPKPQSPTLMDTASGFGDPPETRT
compound,measurement,setting,value
Nc1ncnc2c1ncn2[C@@H]1O[C@H](COP(=O)(O)OP(=O)(O)OP(=O)(O)O)[C@@H](O)[C@H]1O [ATP],stimulation of IP formation,PC3 cells,~17 fold and > 15 fold
CC(C)c1ccc2c(c1)c(SC(C)(C)C)c(CC(C)(C)C(=O)O)n2Cc1ccc(Cl)cc1 [MK886],NT Binding Efficacy % increase,NTR1 [1]; LOX blockers,210 % increase
same,maximal increase in NT binding to PC3 cells,"NTR1 [1]; as much as / up to, dose-response",≤ 3.0 fold
same,EC50,"NTR1 [1]; read-out: NT Binding EC50, [agent] giving 100% increase in NT binding",18000 nM
same,radioactivity associated with NTR1,NTR1 [2],2.7±0.3 fold
same,Specific NT-Binding (% control),NTR1 [3]; 10 μM LOX pathway blocker,99 ± 3 % control
same,Specific NT-Binding (% control),NTR1 [3]; 25 μM LOX pathway blocker,107 ± 4 % control
same,Specific NT-Binding (% control),NTR1 [3]; 75 μM LOX pathway blocker,97 ± 4 % control
same,increase in EGF binding,EGF receptor,65%
same,IC50,5-LOX,100 to 1000 nM
same,Specific Binding (% control) of ^125I-[Nle14]-bombesin,bombesin receptor; 12 μM LOX blocker,106 ± 5 % control
same,Specific Binding (% control) of ^125I-[Nle14]-bombesin,bombesin receptor; 60 μM LOX blocker,125 ± 7 % control
O=C(CCc1ccc(O)cc1)c1c(O)cc(O)cc1O [Phloretin],Internalization rate,NTR1 [4],8.1±0.7 %/minute
same,NT Binding Efficacy % increase,NTR1 [1]; maximal % increase in NT binding observed for each agent,186 % increase
same,Specific NT-Binding (% control),"NTR1 [3]; 10 μM agent, 22° C., 60 minutes",110 ± 7 % control
same,Specific NT-Binding (% control),NTR1 [3]; 25 μM agent,105 ± 8 % control
same,Specific NT-Binding (% control),NTR1 [3]; 75 μM agent,97 ± 8 % control
same,IP Formation Efficacy (% decrease),NTR1 [5],70 % decrease
same,Specific Binding (% control) of ^125I-[Nle^14]-bombesin,bombesin receptor; 12 μM agent,104 ± 3 % control
same,Specific Binding (% control) of ^125I-[Nle^14]-bombesin,bombesin receptor; 60 μM agent,111 ± 4 % control
"Trp 11 NT(1-13): peptide identical to NT (1-13) except tryptophan for tyrosine at amino acid 11 (QLYENKPRRPWIL; ends and bridges not checked; UniProt P30990 151-163, looked up, variant Y11W)",Kd,[6],~1 nM
same,Kd,[7],~27 nM
